The subject of one experiment is guinea pig lung strips. In words: Arachidonic acid-induced spasm of isolated guinea pig lung strips. The conditions noted are these: active substance 100 μM. An excerpt: They display in animal experimental tests on isolated lung strips from guinea pigs a pronounced antiasthmatic effect. The testing of the mentioned pharmacological characteristics follows according to the principles of measuring techniques known from the literature, which come into use in modified form (G. M. Drazen et al. G. Clin. Invest. 63 1 (1979); M. W. Schneider and G. M. Drazen Amer. Rev. Resp. Dis. 121 835 (1980); S. S. Yen and W. Kreutner, Agents Actions 10 274 (1980); S. S. Yen Prostaglandins 22, 183 (1981)).
The compounds of Formula I effect a significant restraint on arachidonic acid-induced bronchial constriction (1.5.10^-5 M arachidonic acid) in the guinea pig lung preparations (see, Example 6). Also with the addition of a cyclooxygenase inhibitor to the measuring system this effect was unaltered, and to some extent stronger, detectably. These experimental results permit without a doubt the conclusion that the compounds of Formula I involve inhibitors of the lipoxygerase pathway of arachidonic utilization, and the above described pharmacological effect is grounded upon this mechanism of activity.
The testing of the compounds for antiasthmatic activity follows on isolated lung strips and isolated tracheal rings from guinea pigs according to measuring methods known from the literature (supra) in modified form. The measurements follow in thermostatically controlled organ bath, isotonically using a contraction measuring arrangement with lift receiver, measuring coil, measuring amplifier (inductive measurement with the aid of a high frequency resonant circuit). The gasification follows with air. The suspension solution has the following composition: 39.46 g NaCl, 2.2 g KCl, 6.07 g Tris, 1.0 g CaCl2, 9.9 g glucose, 1.0 ml saturated MgCl2 -solution, 43 ml 1N HCl; pH 7.4.
(a) Activity on spasm of the guinea pig lung strips, induced by exogenous arachidonic acid.
The spasm is triggered by rising concentrations of arachidonic acid (concentrated solution in ethanol, stored in N2 -atmosphere) and is cumulatively measured. […] The active substance caused a highly significant displacement to the right of the Dose-Activity curves for arachidonic acid, visible by a clear elevation of the ED50 - and ED84 -values. The effect can be described through the following activity index: [formula] In an analogous manner, the index i84 is determined from the measured data.

Experiment [1] deals with T1, lipoxygenase from rabbit reticulocytes (Oryctolagus cuniculus, UniProt P12530).
T1 construct: The lipoxygenase from rabbit reticulocytes is obtained in electrophoretically and immunologically pure form; from tissue; host or cells: rabbit reticulocytes
T1 sequence (P12530 1-663): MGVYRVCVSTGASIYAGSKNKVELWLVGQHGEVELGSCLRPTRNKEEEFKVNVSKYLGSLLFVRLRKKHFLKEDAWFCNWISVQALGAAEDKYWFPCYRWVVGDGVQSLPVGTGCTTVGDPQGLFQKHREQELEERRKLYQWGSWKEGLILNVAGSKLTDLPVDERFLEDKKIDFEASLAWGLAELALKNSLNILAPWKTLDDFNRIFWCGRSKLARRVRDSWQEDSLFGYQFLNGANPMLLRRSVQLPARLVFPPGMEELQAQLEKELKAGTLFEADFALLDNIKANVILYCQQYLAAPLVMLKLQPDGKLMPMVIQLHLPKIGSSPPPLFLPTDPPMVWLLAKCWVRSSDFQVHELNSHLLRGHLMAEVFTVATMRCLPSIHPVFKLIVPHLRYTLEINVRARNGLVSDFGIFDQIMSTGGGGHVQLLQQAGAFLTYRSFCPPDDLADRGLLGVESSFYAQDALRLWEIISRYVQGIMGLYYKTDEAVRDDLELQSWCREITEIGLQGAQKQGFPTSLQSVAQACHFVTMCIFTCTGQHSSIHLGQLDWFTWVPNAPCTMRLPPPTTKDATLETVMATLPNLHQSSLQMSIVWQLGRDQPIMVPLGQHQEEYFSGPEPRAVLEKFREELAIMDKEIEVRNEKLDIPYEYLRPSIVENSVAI
In words: Inhibition of the activity of lipoxygenase from rabbit reticulocytes (oxygen consumption, Clark electrode). Format: biochemical. The method, then: The lipoxygenase from rabbit reticulocytes was obtained in electrophoretically and immunologically pure form according to a technique known from the literature (S. M. Rapoport et al. Methods in Enzymology 71, 430 (1981)). The determination of lipoxygenase activity follows at 25° C. through the polarographic measurement of the oxygen consumption by means of Clark Electrode in a standardized system.
Through variation of the substance concentrations, the titration curves of the inhibition and therefrom the inhibition concentrations (I-value) of the compounds can be determined.
The testing of compounds for antiasthmatic, antiallergenic, inflammation-inhibiting and antithrombotic activity on the basis on the inhibition of the lipoxygenase reaction of the arachidonic acid cascade follows in a molecular/pharmacological test system. […] The lipoxygenase from rabbit reticulocytes is obtained in electrophoretically and immunologically pure form according to the techniques described in the literature (supra). The determination of the lipoxygenase activity follows at 25° C. through the polorographic measurement of oxygen consumption by means of a Clark-electrode in the following system: 0.1M potassiumphosphate, pH 7.4, with 0.2 percent sodium cholate and 0.53 mM linoleic acid. The enzyme concentration in the measurement preparation came to 25 nM. The compounds to be tested are dissolved in methylglycol (freshly distilled in a vacuum) and pre-incubated for 15 minutes at the measuring temperature in the absence of sodium cholate and linoleic acid. […] The enzyme reaction is started by the addition of sodium cholate and linoleic acid.

The target in another experiment is lipoxygenase from peas. In words: Inhibition of lipoxygenase from peas. Format: biochemical. The conditions noted are these: read-out: I50. The method, then: The inhibition of thrombocyte aggregation is likewise ascribed to the inhibition of lipoxygenase in the cells. It has thus been shown that the arachidonate-lipoxygenase activity of a microsome-free lysate of human thrombocyte concentrates is inhibited to the extent of 100% by means of 0.25 mM salicylhydroxamic acid. Moreover, it has been shown that also a series of further lipoxygenases are inhibited by means of the here described hydroxamic acids. The lipoxygenase from soybeans reacts the most insensitive, i.e. it is inhibited by means of 1 mM salicylhydroxamic acid at pH 7.4 to an extent of 60% and by means of 0.4 mM 2-hydroxy-1-napthylhydroxamic acid to an extent of 54%. In contrast, for the lipoxygenase from peas which come closer in their characteristics to human lipoxygenase, the following I50 -values are provided: salicyl hydroxamic acid, 5 μM, 2-hydroxy-1-napthylhydroxamic acid, 2 μM, 2(2'-napthoxy)-acethydroxamic acid, 2 μM. Moreover it has been shown that the formation lipoxygenase products of arachidonic acid in in vitro cultivated aorta endothelial cells of calves is hindered through 0.1 mM 2-hydroxy-1-napthylhydroxamic acids.

Where two headings read alike, the source gives them in different places.

This is an account of results in patent US4670469A, “Hydroxamic acid and pharmaceutical preparations containing the same” (VEB Arzneimittelwerk Dresden, priority 1983, dated 1987).

For `O=C(COc1ccc2ccccc2c1)NO` [2(2'-naphthoxy)-acethydroxamic acid], in the experiment on guinea pig lung strips, the “activity index i50 (displacement of arachidonic acid ED50)” value was determined as 5.8 and the “activity index i84 (displacement of arachidonic acid ED84)” value was 7.1. In addition, the IC50 in experiment [1] (25° C., pH 7.4, 0.53 mM linoleic acid, 15 min pre-incubation, read-out: I50) came out at 2.5 µM. The IC84 in experiment [1] (25° C., pH 7.4, 0.53 mM linoleic acid, 15 min pre-incubation, read-out: I84) was 9 µM. In addition, the IC50 at lipoxygenase from peas was found to be 2 µM.
Consider `O=C(NO)c1ccccc1O` [salicylhydroxamic acid], for which, in the experiment on guinea pig lung strips, the “activity index i50 (displacement of arachidonic acid ED50)” value is on record as 1.9 and the “activity index i84 (displacement of arachidonic acid ED84)” value is on record as 8.5. This molecule came in with an IC50 in experiment [1] of 20 µM. The IC50 at lipoxygenase from peas stood at 5 µM.
